From patent publication US6448006B1, “Methods and compositions for reducing bacterial tolerance to antibacterials disinfectants and organic solvents” (priority 1997, dated 2002)
Values after ≈ are worked out from the molar mass of the structure shown. Read-outs that look alike come from different tables or passages of the source.

Columns and labels:
[1] = system: E. coli strains (AG100, Pine-Sol/pine oil mutants, Mar mutants); experiment: Susceptibility by gradient plates (MIC); assay type: cell-based; conditions: Escherichia coli
Description: (§1) Mutants resistant to Pine-Sol/pine oil were obtained from stationary phase LB broth cultures of E. coli strain “WEC” (wild type strain 15-5068 from Carolina Biological Supply Co., Burlington, N.C.) and AG100 (George and Levy, J. Bacteriol. 155:531-540, 1983), at 30° C. on nutrient agar (NP 3.5GP) or LB agar with 2-3 days incubation in a variety of ways: using a 6 mm disc method; plating cells on plates or gradient plates (Curiale and Levy, J. Bacteriol. 151:209-215, 1982), containing PINE-SOL™ (product of Clorox Co., Oakland, Calif.) or pine oil itself.
(§2) Antibiotic susceptibility was measured at 30° C. using antibiotic susceptibility discs (Carolina Biological), gradient plates with the drug in the top agar (Curiale and Levy, 1982) or agar dilution plates (concentration steps of 1.5 fold; inocula of 10^5 cells/5 μl spot). While there was a variability of resistance phenotypes, all Pine-Sol/pine oil-selected mutants were also multidrug resistant (Table 1A, B).

[2] = system: E. coli strains bearing mar, soxS or robA plasmids; assay type: cell-based
Source text: Organic solvent tolerance mediated by the marA, soxS, robA and acrAB loci of E. coli is described in White et al. (J. Bacteriol. 179:6122-6126, 1997).

[3] = values in parentheses in column heads; cited from earlier work
[4] = system: E. coli strain WEC and its Pine-Sol-selected mutant; experiment: Antibiotic susceptibility by discs (diameter of clearing); assay type: cell-based
Description: as §1, §2

marA mRNA = experiment: Northern blot analysis of marA mRNA with inducer salicylate; assay type: cell-based, E. coli; conditions: Mar mutant AG102, mutants AP5 and NP3.5 GP
Source text: Over expression was also seen in mutant APS3 (data not shown). […] We concluded that AP5, NP3.5GP, and APS3, but not AP1, were probably Mar mutants.

[5] = read-out: Susceptibility by gradient plates (MIC), strain AG102, Mar mutant of AG100, selected on Tc (2 steps)
[6] = read-out: Susceptibility by gradient plates (MIC), strain AP1, mutant of AG100 selected by pine oil on disc
[7] = read-out: Susceptibility by gradient plates (MIC), strain AP5, mutant of AG100 selected as for AP1
[8] = read-out: Susceptibility by gradient plates (MIC), strain APS3, mutant of AG100 selected on Pine-Sol gradient (0-1.5%)
[9] = strain AG100, wildtype, read-out: Susceptibility by gradient plates (MIC)
[10] = strain HH180, deletion of 39 kb including mar locus, host MM294, read-out: Susceptibility by gradient plates (MIC)
[11] = strain HH188, HH180 containing pHHM183 (mar+), read-out: Susceptibility by gradient plates (MIC)
[12] = strain HH191, HH180 containing pHHM191 (marR2), read-out: Susceptibility by gradient plates (MIC)
[13] = strain HH193, HH180 containing pHHM193 (marR5), read-out: Susceptibility by gradient plates (MIC)

Q: Which results are given for `CCn1cc(C(=O)O)c(=O)c2ccc(C)nc21` [Nal, nalidixic acid]?
A: MIC [1, 5]: 14 µg/mL (≈ 60.3 µM); MIC [1, 6]: 9.7 µg/mL (≈ 41.8 µM); MIC [1, 7]: 7.5 µg/mL (≈ 32.3 µM); MIC [1, 8]: 8.6 µg/mL (≈ 37 µM); MIC [1, 9]: 1.7 µg/mL (≈ 7.32 µM); MIC [1, 10]: < 1.8 µg/mL; MIC [1, 11]: 3.7 µg/mL (≈ 15.9 µM); MIC [1, 12]: 9.1 µg/mL (≈ 39.2 µM); MIC [1, 13]: 10.9 µg/mL (≈ 46.9 µM)

Q: With `C1CCCCC1` [cyclohexane] as the compound, how does the “Growth in presence of organic solvent” value ([2]; AG100 (wild-type), no plasmid) read?
A: Its value is “−”.

Q: And the “Growth in presence of organic solvent” value ([2]; AG100, plasmid pMAK-TU1)?
A: The value was “−”.

Q: And the “Growth in presence of organic solvent” value ([2]; AG100, plasmid pMAK-TU1 & TU2)?
A: Its value is “+ +”.

Q: And the “Growth in presence of organic solvent” value ([2]; AG100, plasmid pMAK-TU2)?
A: Its value is “+ ((+) visible growth(≦100 colonies))”.

Q: And the “Growth in presence of organic solvent” value ([2]; AG100, plasmid pSMarAB)?
A: The value was “+ ((+) visible growth(≦100 colonies))”.

Q: And the “Growth in presence of organic solvent” value ([2]; AG100, plasmid pSRob)?
A: Its value is “+ +”.

Q: What about the “Growth in presence of organic solvent” value ([2]; AG100, plasmid pSXS) of the same compound?
A: Its value is “+ +”.

Q: And the “Growth in presence of organic solvent” value ([2]; AG100-A (ΔacrAB), no plasmid)?
A: The value was “−”.

Q: And the “Growth in presence of organic solvent” value ([2]; AG100-B (acrR mutant), no plasmid)?
A: The value was “+ ((+) visible growth(≦100 colonies))”.

Q: What about the “Growth in presence of organic solvent” value ([2]; AG100K (marCORAB::kan), no plasmid) of the same compound?
A: The value was “−”.

Q: What about the “Growth in presence of organic solvent” value ([2]; AG100K, plasmid pMAK-TU1) of the same compound?
A: Its value is “−”.

Q: And the “Growth in presence of organic solvent” value ([2]; AG100K, plasmid pMAK-TU2)?
A: The value was “+ ((+) visible growth(≦100 colonies))”.

Q: What about the “Growth in presence of organic solvent” value ([2]; AG100K, plasmid pMAK-TUI & TU2) of the same compound?
A: The value was “+ +”.

Q: And the “Growth in presence of organic solvent” value ([2]; AG100K, plasmid pSMarAB)?
A: The value was “+ ((+) visible growth(≦100 colonies))”.

Q: And the “Growth in presence of organic solvent” value ([2]; AG100K, plasmid pSRob)?
A: Its value is “+ +”.

Q: What about the “Growth in presence of organic solvent” value ([2]; AG100K, plasmid pSXS) of the same compound?
A: Its value is “+ +”.

Q: What about the “Growth in presence of organic solvent” value ([2]; AG102 (marR mutation), no plasmid) of the same compound?
A: Its value is “+ +”.

Q: And the “Growth in presence of organic solvent” value ([2]; AG102-A (marRl, ΔacrAB), no plasmid)?
A: The value was “−”.

Q: And the “Growth in presence of organic solvent” value ([2]; AG102-A, plasmid pSMarAB)?
A: The value was “−”.

Q: And the “Growth in presence of organic solvent” value ([2]; AG102-A, plasmid pSRob)?
A: The value was “−”.

Q: And the “Growth in presence of organic solvent” value ([2]; AG102-A, plasmid pSXS)?
A: Its value is “−”.

Q: What about the “Growth in presence of organic solvent” value ([2]; DJ901 (ΔsoxRS), no plasmid) of the same compound?
A: Its value is “−”.

Q: What about the “Growth in presence of organic solvent” value ([2]; DJ901, plasmid pMAK-TU1) of the same compound?
A: Its value is “−”.

Q: And the “Growth in presence of organic solvent” value ([2]; DJ901, plasmid pMAK-TU1 & TU2)?
A: Its value is “+ +”.

Q: And the “Growth in presence of organic solvent” value ([2]; DJ901, plasmid pMAK-TU2)?
A: The value was “+ ((+) visible growth(≦100 colonies))”.

Q: And the “Growth in presence of organic solvent” value ([2]; DJ901, plasmid pSMarAB)?
A: Its value is “+ ((+) visible growth(≦100 colonies))”.

Q: And the “Growth in presence of organic solvent” value ([2]; DJ901, plasmid pSRob)?
A: The value was “+ +”.

Q: What about the “Growth in presence of organic solvent” value ([2]; DJ901, plasmid pSXS) of the same compound?
A: Its value is “+ +”.

Q: What about the “Growth in presence of organic solvent” value ([2]; GC4468 (wild-type), no plasmid) of the same compound?
A: Its value is “−”.

Q: And the “Growth in presence of organic solvent” value ([2]; GC4468, plasmid pMAK-TU1)?
A: The value was “−”.

Q: And the “Growth in presence of organic solvent” value ([2]; GC4468, plasmid pMAK-TU1 & TU2)?
A: The value was “+ +”.

Q: And the “Growth in presence of organic solvent” value ([2]; GC4468, plasmid pMAK-TU2)?
A: The value was “+ ((+) visible growth(≦100 colonies))”.

Q: What about the “Growth in presence of organic solvent” value ([2]; GC4468, plasmid pSMarAB) of the same compound?
A: The value was “+ ((+) visible growth(≦100 colonies))”.

Q: And the “Growth in presence of organic solvent” value ([2]; GC4468, plasmid pSRob)?
A: Its value is “+ +”.

Q: What about the “Growth in presence of organic solvent” value ([2]; GC4468, plasmid pSXS) of the same compound?
A: Its value is “+ +”.

Q: What about the “Growth in presence of organic solvent” value ([2]; JHC1069 (cfxB1), no plasmid) of the same compound?
A: Its value is “+ +”.

Q: What about the “Growth in presence of organic solvent” value ([2]; JTG1078 (soxR105), no plasmid) of the same compound?
A: Its value is “+ +”.

Q: And the “Growth in presence of organic solvent” value ([2]; MCH164 (Δmar), no plasmid)?
A: The value was “−”.

Q: And the “Growth in presence of organic solvent” value ([2]; MCH164, plasmid pMAK-TU1)?
A: The value was “−”.

Q: What about the “Growth in presence of organic solvent” value ([2]; MCH164, plasmid pMAK-TU1 & TU2) of the same compound?
A: The value was “+ +”.

Q: What about the “Growth in presence of organic solvent” value ([2]; MCH164, plasmid pMAK-TU2) of the same compound?
A: Its value is “−”.

Q: And the “Growth in presence of organic solvent” value ([2]; MCH164, plasmid pSMarAB)?
A: Its value is “−”.

Q: What about the “Growth in presence of organic solvent” value ([2]; MCH164, plasmid pSRob) of the same compound?
A: The value was “−”.

Q: And the “Growth in presence of organic solvent” value ([2]; MCH164, plasmid pSXS)?
A: Its value is “−”.

Q: What about the “Growth in presence of organic solvent” value ([2]; RA4468 (robA::kan), no plasmid) of the same compound?
A: The value was “−”.

Q: And the “Growth in presence of organic solvent” value ([2]; RA4468, plasmid pMAK-TU1)?
A: The value was “−”.

Q: What about the “Growth in presence of organic solvent” value ([2]; RA4468, plasmid pMAK-TU1 & TU2) of the same compound?
A: Its value is “+ +”.

Q: What about the “Growth in presence of organic solvent” value ([2]; RA4468, plasmid pMAK-TU2) of the same compound?
A: Its value is “+ ((+) visible growth(≦100 colonies))”.

Q: What about the “Growth in presence of organic solvent” value ([2]; RA4468, plasmid pSMarAB) of the same compound?
A: Its value is “+ ((+) visible growth(≦100 colonies))”.

Q: And the “Growth in presence of organic solvent” value ([2]; RA4468, plasmid pSRob)?
A: Its value is “+ +”.

Q: What about the “Growth in presence of organic solvent” value ([2]; RA4468, plasmid pSXS) of the same compound?
A: Its value is “+ +”.

Q: What about the “log Pow” value [3] of the same compound?
A: Its value is “cyclohexane (3.4)”.

Q: Which results are given for `CN(C)[C@@H]1C(O)=C(C(N)=O)C(=O)[C@@]2(O)C(O)=C3C(=O)c4c(O)cccc4[C@@](C)(O)[C@H]3C[C@@H]12` [Tc, tetracycline]?
A: Susceptibility by discs; diameter of clearing ([4]; strain WEC, wild type, 30° C.): 21 mm; Susceptibility by discs; diameter of clearing ([4]; {}): 14 mm; MIC [1, 5]: > 12.8 µg/mL; MIC [1, 6]: 2.4 µg/mL (≈ 5.4 µM); MIC [1, 7]: 4.5 µg/mL (≈ 10.1 µM); MIC [1, 8]: 5.3 µg/mL (≈ 11.9 µM); MIC [1, 9]: 1.8 µg/mL (≈ 4.05 µM); MIC [1, 10]: < 0.6 µg/mL; MIC [1, 11]: 1.2 µg/mL (≈ 2.7 µM); MIC [1, 12]: 8.2 µg/mL (≈ 18.5 µM); MIC [1, 13]: > 11.4 µg/mL

Q: With `O=C(O)c1ccccc1O` [salicylate] as the compound, how does the “Effect of inducer on over expression of marA mRNA” value (marA mRNA) read?
A: The value was “enhanced”.
